{"source": "ChEMBL document CHEMBL5137070", "about": "“N-2-(Phenylamino) Benzamide Derivatives as Dual Inhibitors of COX-2 and Topo I Deter Gastrointestinal Cancers via Targeting Inflammation and Tumor Progression” (J Med Chem, 2022)", "key": {"[1]": {"system": "RKO", "assay": "Induction of cell cycle arrest in human RKO cells assessed as accumulation at G2/M phase at 3.3 to 10 uM for 24 hrs by propidium iodide staining based flow cytometry", "assay_type": "functional", "conditions": "dose 3.3-10 µM"}, "[2]": {"system": "HGC-27", "assay": "Effect on cell morphology in human HGC-27 cells assessed as lose of adherence at 10 uM incubated for 48 hrs by giemsa staining based microscopic analysis", "assay_type": "functional"}, "[3]": {"system": "RAW264.7", "assay": "Cytotoxicity against mouse RAW264.7 cells assessed as reduction in cell viability at <=11.11 for 24 hrs by MTT assay", "assay_type": "toxicity, cell-based", "conditions": "raw264.7, 24 h"}, "[4]": {"system": "HGC-27", "assay": "Antiproliferative activity against human HGC-27 cells assessed as reduction in cell proliferation incubated for 48 hrs by MTT assay", "assay_type": "functional, cell-based", "conditions": "HGC-27, 48 h"}, "[5]": {"system": "RKO", "assay": "Induction of apoptosis in human RKO cells assessed as increase in caspase-3 activity at 10 uM incubated for 36 hrs by flow cytometry (Rvb= 1.08%)", "assay_type": "functional"}, "[6]": {"system": "HGC-27", "assay": "Effect on cell morphology in human HGC-27 cells assessed as contracted nucleus at 10 uM incubated for 48 hrs by giemsa staining based microscopic analysis", "assay_type": "functional"}, "[7]": {"assay": "Toxicity in BALB/c mouse xenografted with mouse CT26.WT assessed as pathological changes in kidney at 100 mg/kg, ip twice daily and measured after 14 days by hematoxylin and eosin staining based microscopic analysis", "assay_type": "organism-based", "conditions": "in vivo, 336 h, time 14 day"}, "[8]": {"assay": "Toxicity in BALB/c mouse xenografted with mouse CT26.WT assessed as change in body weight at 100 mg/kg, ip twice daily and measured upto 14 days relative to control", "assay_type": "organism-based", "conditions": "in vivo, 336 h, time < 14 day"}, "[9]": {"system": "HGC-27", "assay": "Induction of mitochondrial membrane loss in human HGC-27 at 1.1 to 10 uM and measured after 36 hrs by TMRE dye based flow cytometry", "assay_type": "functional, cell-based", "conditions": "dose 1.1-10 µM, DDE = dose-dependent effect"}, "[10]": {"system": "CT26.WT", "assay": "Anti-tumor activity against mouse CT26.WT xenografted in BALB/c mouse assessed as decrease in MMP-9 expression level in tumor tissue at 100 mg/kg, ip twice daily and measured after 14 days by immunohistochemical analysis", "assay_type": "functional, organism-based", "conditions": "time 14.0 day"}, "[11]": {"assay": "Half in Sprague-Dawley rat at 100 mg/kg, ip and measured upto 8 hrs by LC-MS/MS analysis", "assay_type": "ADME, organism-based", "conditions": "in vivo"}, "[12]": {"system": "RAW264.7", "assay": "Inhibition of LPS induced NO production in mouse RAW264.7 cells at 1.1 uM incubated for 1 hrs followed by LPS stimulation and measured after 24 hrs by Griess reagent based assay", "assay_type": "functional, cell-based", "conditions": "time 25.0 hrs"}, "[13]": {"system": "RKO", "assay": "Induction of apoptosis in human RKO cells at 1.1 to 10 uM for 24 hrs by Annexin V-FITC/PI staining based flow cytometry", "assay_type": "functional, cell-based", "conditions": "dose 1.1-10 µM"}, "[14]": {"system": "HGC-27", "assay": "Induction of apoptosis in human HGC-27 cells assessed as increase in caspase-3 activity at 1.1 to 10 uM incubated for 36 hrs by flow cytometry", "assay_type": "functional, cell-based", "conditions": "dose 1.1-10 µM, DDE = dose-dependent effect"}, "[15]": {"target": "Nuclear factor NF-kappa-B complex (Homo sapiens) (UniProt Q00653+P19838+Q04206)", "sequence (P19838 whole entry, looked up)": "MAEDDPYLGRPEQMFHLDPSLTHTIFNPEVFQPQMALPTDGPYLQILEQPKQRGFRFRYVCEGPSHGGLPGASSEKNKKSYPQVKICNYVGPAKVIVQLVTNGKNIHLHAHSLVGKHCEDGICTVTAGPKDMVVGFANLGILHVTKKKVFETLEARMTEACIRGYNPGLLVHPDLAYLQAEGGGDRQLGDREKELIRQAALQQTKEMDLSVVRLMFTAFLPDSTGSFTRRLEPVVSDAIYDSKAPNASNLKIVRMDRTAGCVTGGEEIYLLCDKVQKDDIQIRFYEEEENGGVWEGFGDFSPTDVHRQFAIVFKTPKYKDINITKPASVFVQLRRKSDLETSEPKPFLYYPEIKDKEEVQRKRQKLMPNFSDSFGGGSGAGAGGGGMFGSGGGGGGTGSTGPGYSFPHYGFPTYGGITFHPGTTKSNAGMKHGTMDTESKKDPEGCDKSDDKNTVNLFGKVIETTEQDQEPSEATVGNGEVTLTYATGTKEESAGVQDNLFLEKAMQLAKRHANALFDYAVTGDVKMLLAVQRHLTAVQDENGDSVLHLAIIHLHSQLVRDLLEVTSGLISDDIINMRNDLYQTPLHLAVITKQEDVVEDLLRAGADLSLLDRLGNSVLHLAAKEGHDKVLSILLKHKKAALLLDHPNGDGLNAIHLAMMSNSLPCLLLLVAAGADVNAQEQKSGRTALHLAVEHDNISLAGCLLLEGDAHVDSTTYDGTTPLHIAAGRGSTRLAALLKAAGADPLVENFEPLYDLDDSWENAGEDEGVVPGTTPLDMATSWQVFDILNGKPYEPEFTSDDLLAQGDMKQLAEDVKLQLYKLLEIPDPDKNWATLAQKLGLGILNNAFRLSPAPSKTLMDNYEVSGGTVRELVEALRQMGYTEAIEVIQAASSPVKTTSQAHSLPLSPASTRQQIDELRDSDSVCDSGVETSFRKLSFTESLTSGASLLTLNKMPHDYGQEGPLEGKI", "sequence (Q00653 whole entry, looked up)": "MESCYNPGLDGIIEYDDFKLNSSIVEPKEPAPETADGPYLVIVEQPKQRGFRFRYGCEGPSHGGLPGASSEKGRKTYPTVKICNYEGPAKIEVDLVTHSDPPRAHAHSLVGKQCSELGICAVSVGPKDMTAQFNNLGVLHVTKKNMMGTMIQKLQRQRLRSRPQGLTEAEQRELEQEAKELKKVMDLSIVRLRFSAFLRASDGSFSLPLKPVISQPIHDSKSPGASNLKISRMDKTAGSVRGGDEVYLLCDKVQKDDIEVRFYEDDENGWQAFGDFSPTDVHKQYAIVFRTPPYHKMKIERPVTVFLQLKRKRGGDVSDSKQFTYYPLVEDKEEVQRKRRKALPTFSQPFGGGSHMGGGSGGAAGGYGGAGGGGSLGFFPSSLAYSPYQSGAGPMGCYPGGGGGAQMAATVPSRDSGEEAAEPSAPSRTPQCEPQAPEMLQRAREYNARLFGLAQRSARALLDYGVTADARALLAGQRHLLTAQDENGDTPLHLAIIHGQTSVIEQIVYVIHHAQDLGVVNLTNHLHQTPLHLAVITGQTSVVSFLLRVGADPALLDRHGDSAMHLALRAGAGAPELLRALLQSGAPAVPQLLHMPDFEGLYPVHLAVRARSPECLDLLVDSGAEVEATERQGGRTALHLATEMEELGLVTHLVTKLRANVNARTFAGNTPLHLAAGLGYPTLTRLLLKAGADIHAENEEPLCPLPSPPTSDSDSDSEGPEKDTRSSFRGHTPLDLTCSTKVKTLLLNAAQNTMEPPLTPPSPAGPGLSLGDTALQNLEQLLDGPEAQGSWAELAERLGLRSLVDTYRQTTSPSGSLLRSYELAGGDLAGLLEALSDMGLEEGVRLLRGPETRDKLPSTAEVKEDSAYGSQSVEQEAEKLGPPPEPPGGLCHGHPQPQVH", "sequence (Q04206 whole entry, looked up)": "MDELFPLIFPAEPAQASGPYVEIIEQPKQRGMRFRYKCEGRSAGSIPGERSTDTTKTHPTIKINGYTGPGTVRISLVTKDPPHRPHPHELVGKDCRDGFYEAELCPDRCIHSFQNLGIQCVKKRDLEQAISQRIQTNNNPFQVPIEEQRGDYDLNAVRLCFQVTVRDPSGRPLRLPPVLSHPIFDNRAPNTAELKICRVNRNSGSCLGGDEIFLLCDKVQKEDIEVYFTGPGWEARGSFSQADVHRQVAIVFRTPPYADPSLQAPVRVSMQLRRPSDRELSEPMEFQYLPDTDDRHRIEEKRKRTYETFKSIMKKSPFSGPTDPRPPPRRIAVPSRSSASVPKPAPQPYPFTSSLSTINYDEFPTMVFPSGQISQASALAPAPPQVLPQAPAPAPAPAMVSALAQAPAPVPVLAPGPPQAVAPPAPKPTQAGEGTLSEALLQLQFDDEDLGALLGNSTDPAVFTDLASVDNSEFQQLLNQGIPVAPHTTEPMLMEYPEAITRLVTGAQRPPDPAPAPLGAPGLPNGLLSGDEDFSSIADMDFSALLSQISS", "assay": "Inhibition of NF-kappaB activation in human HGC-27 cells assessed as downregulation of NF-kappaB phosphorylation at 10 uM for 48 hrs by DAPI staining based immunofluorescence assay", "assay_type": "cell-based"}, "[16]": {"system": "CT26.WT", "assay": "Anti-tumor activity against mouse CT26.WT xenografted in BALB/c mouse assessed as decrease in tumor weight at 100 mg/kg, ip twice daily and measured upto 14 days relative to control", "assay_type": "functional, organism-based", "conditions": "time <= 14.0 day"}, "[17]": {"system": "CT26.WT", "assay": "Antiproliferative activity against mouse CT26.WT cells assessed as cell viability at 1.23 uM for 48 hrs by MTT assay", "assay_type": "functional", "conditions": "read-out: Activity"}, "[18]": {"assay": "Toxicity in BALB/c mouse xenografted with mouse CT26.WT assessed as pathological changes in liver at 100 mg/kg, ip twice daily and measured after 14 days by hematoxylin and eosin staining based microscopic analysis", "assay_type": "organism-based", "conditions": "in vivo, 336 h, time 14 day"}, "[19]": {"assay": "Tmax in Sprague-Dawley rat at 100 mg/kg, ip and measured upto 8 hrs by LC-MS/MS analysis", "assay_type": "ADME, organism-based", "conditions": "in vivo"}, "[20]": {"system": "HGC-27", "assay": "Induction of apoptosis in human HGC-27 cells at 1.1 to 10 uM for 24 hrs by Annexin V-FITC/PI staining based flow cytometry", "assay_type": "functional, cell-based", "conditions": "dose 1.1-10 µM"}, "[21]": {"system": "RKO", "assay": "Effect on cell morphology in human RKO cells assessed as condensed morphology at 10 uM incubated for 48 hrs by giemsa staining based microscopic analysis", "assay_type": "functional"}, "[22]": {"system": "RKO", "assay": "Anti-metastasis activity against human RKO cells assessed as reduction in MMP-9 expression level at 3.3 to 10 uM for 24 hrs by western blot analysis", "assay_type": "functional, cell-based", "conditions": "dose 3.3-10 µM"}, "[23]": {"system": "HGC-27", "assay": "Induction of apoptosis in human HGC-27 cells assessed as increase in caspase-3 activity at 10 uM incubated for 36 hrs by flow cytometry (Rvb= 9.39%)", "assay_type": "functional"}, "[24]": {"system": "HT-29", "assay": "Antiproliferative activity against human HT-29 cells assessed as reduction in cell proliferation incubated for 48 hrs by MTT assay", "assay_type": "functional, cell-based", "conditions": "HT-29, 48 h"}, "[25]": {"system": "RAW264.7", "assay": "Antiinflammatory activity against LPS-stimulated mouse RAW264.7 cells assessed decrease in IL-1beta release at 1.1 uM incubated for 1 hrs followed by LPS stimulation and measured after 24 hrs by ELISA", "assay_type": "functional, cell-based", "conditions": "time 25.0 hrs"}, "[26]": {"system": "HGC-27", "assay": "Anti-migration activity against human HGC-27 cells assessed as decrease in cell migration rate at 0.37 uM for 48 hrs by crystalline violet staining based assay", "assay_type": "functional"}, "[27]": {"assay": "Acute toxicity in Kunming mouse assessed as behavioral changes at 100 mg/kg,ip and measured upto 14 days", "assay_type": "organism-based", "conditions": "in vivo, 336 h, time < 14 day"}, "[28]": {"system": "RKO", "assay": "Induction of apoptosis in human RKO cells assessed as increase in caspase-3 activity at 3.3 uM incubated for 36 hrs by flow cytometry (Rvb= 1.08%)", "assay_type": "functional"}, "[29]": {"system": "HGC-27", "assay": "Effect on cell morphology in human HGC-27 cells assessed as appearance of smaller cells at 10 uM incubated for 48 hrs by giemsa staining based microscopic analysis", "assay_type": "functional"}, "[30]": {"system": "HGC-27", "assay": "Antiproliferative activity against human HGC-27 cells assessed as cell viability at <= 0.41 uM for 48 hrs by MTT assay", "assay_type": "functional", "conditions": "up to 0.41 µM"}, "[31]": {"system": "RKO", "assay": "Induction of apoptosis in human RKO cells assessed as increase in cleaved caspase-3 expression at 1.1 to 10 uM incubated for 24 hrs by western blot assay", "assay_type": "functional, cell-based", "conditions": "dose 1.1-10 µM"}}, "note": "Calls of active or inactive are those of the source. The rule behind the calls is not given here."}
{"smiles": "Cc1c(Cl)cccc1Nc1ccc(F)cc1C(=O)NCc1ccc(O)c(O)c1", "values": [{"measurement": "Activity", "setting": "[1]", "value": "Active"}, {"measurement": "Activity", "setting": "[2]", "value": "Active"}, {"measurement": "Activity", "setting": "[3]", "value": "> 80", "unit": "%"}, {"measurement": "IC50", "setting": "[4]", "value": 4.71, "unit": "µM"}, {"measurement": "Activity", "setting": "[5]", "value": 55.94, "unit": "%"}, {"measurement": "Activity", "setting": "[6]", "value": "Active"}, {"measurement": "Activity", "setting": "[7]", "value": "Non-Toxic"}, {"measurement": "Activity", "setting": "[8]", "value": "Non-Toxic"}, {"measurement": "Activity", "setting": "[9]", "value": "Dde"}, {"measurement": "Activity", "setting": "[10]", "value": "Active"}, {"measurement": "half-life", "setting": "[11]", "value": 1.56, "unit": "h"}, {"measurement": "inhibition", "setting": "[12]", "value": "Active"}, {"measurement": "Activity", "setting": "[13]", "value": "Active"}, {"measurement": "Activity", "setting": "[14]", "value": "Dde"}, {"measurement": "inhibition", "setting": "[15]", "value": "Active"}, {"measurement": "Activity", "setting": "[16]", "value": "Active"}, {"measurement": "viability at 1.23 µM", "setting": "[17]", "value": "> 80", "unit": "%"}, {"measurement": "Activity", "setting": "[18]", "value": "Non-Toxic"}, {"measurement": "Tmax", "setting": "[19]", "value": 0.67, "unit": "h"}, {"measurement": "Activity", "setting": "[20]", "value": "Active"}, {"measurement": "Activity", "setting": "[21]", "value": "Active"}, {"measurement": "Activity", "setting": "[22]", "value": "Active"}, {"measurement": "Activity", "setting": "[23]", "value": 69.46, "unit": "%"}, {"measurement": "IC50", "setting": "[24]", "value": 16.9, "unit": "µM"}, {"measurement": "Activity", "setting": "[25]", "value": "Active"}, {"measurement": "Activity", "setting": "[26]", "value": "Active"}, {"measurement": "Activity", "setting": "[27]", "value": "Non-Toxic"}, {"measurement": "Activity", "setting": "[28]", "value": 55.24, "unit": "%"}, {"measurement": "Activity", "setting": "[29]", "value": "Active"}, {"measurement": "Activity", "setting": "[30]", "value": ">80", "unit": "%"}, {"measurement": "Activity", "setting": "[31]", "value": "Active"}]}
